Test results reported in the supplement of paper PMC4858399.
Where a name gives a salt, the structure may show the parent alone.

Tests used:
Details in all cases: exposure time 48 h
[1] = tested on: Caenorhabditis elegans N2; assay: lowest effective concentration for larval growth inhibition (size below effect threshold); higher = less potent
Summary of the method: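 Each well of a 96-well plate received 50 C. elegans N2 L1 larvae, which grew for 48 h at 20°C in K-medium containing killed bacteria, 1% DMSO and the chemical at 0.5, 1, 5, 10, 50, 100 or 200 µM. A Biosort recorded the extinction of every worm as its size, and these readings were log-transformed and averaged per well. The lowest effective concentration is defined as the first dose at which the plate-adjusted mean size falls below the threshold and stays below it at all higher doses; that threshold is 5.665.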

[2] = tested on: Caenorhabditis elegans N2; assay: mean nematode size ln(EXT) after 48 h, plate-adjusted (DMSO control set to 6) (ln(EXT), control-adjusted); higher = larger nematodes / less growth inhibition
Summary of the method: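 Chemical at 0.5–200 µM was tested on synchronised C. elegans N2 L1 larvae grown for 48 h at 20°C in K-medium with killed OP50 and 1% DMSO. Per-worm Biosort extinction, cleared of debris by a growth model, was natural-logged and averaged per well to give mean size. Plates were normalised by subtracting the vehicle control mean and adding 6.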

[3] = tested on: Caenorhabditis elegans N2; assay: AC50 for larval growth inhibition (Hill fit); higher = less potent
Summary of the method: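 AC50 values come from a constrained Hill fit by weighted genetic-algorithm regression and are censored when out of range. The fit used only wells with at least 10 worms. Each well of a 96-well plate held 50 synchronised C. elegans N2 L1 larvae in K-medium with killed OP50, 1% DMSO and 0.5–200 µM chemical for 48 h at 20°C. A COPAS Biosort recorded each worm's size as extinction, which was log-transformed and averaged per well.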

| Compound | lowest effective concentration [1] | mean nematode size ln(EXT) (ln) ([2]; 0.5 µM) | mean nematode size ln(EXT) (ln) ([2]; 1 µM) | mean nematode size ln(EXT) (ln) ([2]; 5 µM) | mean nematode size ln(EXT) (ln) ([2]; 10 µM) | mean nematode size ln(EXT) (ln) ([2]; 50 µM) | mean nematode size ln(EXT) (ln) ([2]; 100 µM) | mean nematode size ln(EXT) (ln) ([2]; 200 µM) | AC50 for larval growth inhibition [3] |
| --- | --- | --- | --- | --- | --- | --- | --- | --- | --- |
| CCCCOC(=O)c1ccccc1 [Butyl benzoate] | 200 µM | 6 | 5.94 | 5.85 | 5.83 | 6 | 5.76 | 5.53 | 100 µM |
| CCOP(=S)(OCC)OC(Cl)C(Cl)(Cl)Cl (configuration not stated) [Chlorethoxyfos] | 50 µM | 5.75 | 5.76 | 5.76 | 5.7 | 4.54 | 5.09 | 3.42 | 13.2 µM |
| CC(C)(c1ccccc1)c1ccc(O)c(C(C)(C)c2ccccc2)c1 [2,4-Bis(alpha,alpha-dimethylbenzyl)phenol] | 10 µM | 6 | 5.67 | 5.74 | 5.45 | 4.67 | 4.3 | 3.8 | 58.7 µM |
| CCOC(=O)[C@]1(c2ccccc2)Oc2ccccc2[C@@H]1N | 10 µM | 5.84 | 5.73 | 5.71 | 5.27 | 4.94 | 5.43 | 4.03 | 56.5 µM |
| Cc1cnc(C2=NC(=O)C(C)(C(C)C)N2)c(C(=O)O)c1 (configuration not stated) [Imazapic] | 50 µM | 5.98 | 6.06 | 6.04 | 6.23 | 5.45 | 4.31 | 3.54 | 79.6 µM |
| O=NN(c1ccccc1)c1ccccc1 [N-Nitrosodiphenylamine] | 200 µM | 6.12 | 6.03 | 6.08 | 6.08 | 6 | 5.87 | 5.26 | > 200 µM |
| COC(=O)N(OC)c1ccccc1COc1ccn(-c2ccc(Cl)cc2)n1 [Pyraclostrobin] | 50 µM | 6 | 5.89 | 5.83 | 5.89 | 5.21 | 4.93 | 4.43 | 97.6 µM |
| Cc1nn(C)c(Oc2ccccc2)c1C=NOCc1ccc(C(=O)OC(C)(C)C)cc1 [(Z,E)-Fenpyroximate] | ≤ 0.5 µM | 4.99 | 4.67 | 4.2 | 4.2 | 4.09 | 4.05 | 3.39 | < 0.5 µM |
| c1ccc2c(c1)Cc1ccccc1-2 [Diphenylenemethane] | 50 µM | 6.07 | 6.06 | 6.03 | 5.92 | 4.4 | 4.02 | 3.5 | 39.2 µM |
| CC(C)OC(=O)C(C)(C)Oc1ccc(C(=O)c2ccc(Cl)cc2)cc1 [Fenofibrate] | 10 µM | 5.83 | 5.81 | 5.75 | 5.61 | 5.19 | 4.62 | 4.22 | 121 µM |
| O=P(Oc1ccccc1)(Oc1ccccc1)Oc1ccccc1 [Triphenyl phosphate] | 1 µM | 5.84 | 5.63 | 5.25 | 4.99 | 4.17 | 3.78 | 3.66 | 20.5 µM |
| CC#Cc1cc(C)nc(Nc2ccccc2)n1 [Mepanipyrim] | 200 µM | 5.81 | 5.81 | 5.8 | 5.84 | 5.7 | 5.75 | 5.21 | > 200 µM |
| CC(=O)OC/C=C(\C)CCC=C(C)C [Geranyl acetate] | 200 µM | 5.79 | 5.76 | 5.73 | 5.81 | 5.7 | 5.74 | 5.61 | > 200 µM |
| CC(C)(O)c1coc(S(=O)(=O)NC(=O)Nc2c3c(cc4c2CCC4)CCC3)c1 | 200 µM | 5.93 | 6.15 | 6.24 | 6.2 | 6.09 | 5.98 | 5.63 | 111 µM |
| CCOP(=S)(Oc1ccc([N+](=O)[O-])cc1)c1ccccc1 (configuration not stated) [O-Ethyl O-(p-nitrophenyl) phenylphosphonothioate] | ≤ 0.5 µM | 5.28 | 5.07 | 4.53 | 4.38 | 4.13 | 4.01 | 3.39 | 6.09 µM |
| CCCCN(CC)c1c([N+](=O)[O-])cc(C(F)(F)F)cc1[N+](=O)[O-] [Benfluralin] | 50 µM | 5.76 | 5.73 | 5.82 | 5.7 | 5.31 | 5.04 | 4.16 | 175 µM |
| COC(=O)c1c(Cl)c(Cl)c(C(=O)OC)c(Cl)c1Cl [Chlorthal-dimethyl] | 100 µM | 5.89 | 5.95 | 5.78 | 5.83 | 5.75 | 5.56 | 5.42 | > 200 µM |
| CCCCC(CC)COC(=O)c1ccc(C(=O)OCC(CC)CCCC)c(C(=O)OCC(CC)CCCC)c1 (configuration not stated) [Tris(2-ethylhexyl)trimellitate] | 200 µM | 5.91 | 5.93 | 5.94 | 5.81 | 5.93 | 5.87 | 5.53 | > 200 µM |
| CC(C)(c1ccc(O)cc1)c1ccc(O)cc1 [Bisphenol A] | 200 µM | 5.83 | 5.86 | 5.99 | 5.88 | 5.95 | 5.96 | 5.46 | > 200 µM |
| OC(c1ccc(Cl)cc1)(c1ccc(Cl)cc1)C(Cl)(Cl)Cl [Dicofol] | ≤ 0.5 µM | 5.64 | 5.63 | 5.3 | 4.39 | 3.83 | 3.61 | 3.35 | 10.8 µM |
| CCC(C)c1ccc(O)cc1 (configuration not stated) [4-(Butan-2-yl)phenol] | 200 µM | 6.03 | 6.09 | 6.07 | 6.08 | 6.05 | 6.02 | 5.52 | 142 µM |
| ClC1=C(Cl)C2(Cl)C3C4CC(C5OC45)C3C1(Cl)C2(Cl)Cl (configuration not stated) [Endrin] | 5 µM | 5.93 | 5.85 | 4.99 | 4.95 | 3.81 | 3.9 | 3.75 | 8.83 µM |

| Compound | lowest effective concentration [1] | mean nematode size ln(EXT) (ln) ([2]; 0.5 µM) | mean nematode size ln(EXT) (ln) ([2]; 1 µM) | mean nematode size ln(EXT) (ln) ([2]; 5 µM) | mean nematode size ln(EXT) (ln) ([2]; 10 µM) | mean nematode size ln(EXT) (ln) ([2]; 50 µM) | mean nematode size ln(EXT) (ln) ([2]; 100 µM) | mean nematode size ln(EXT) (ln) ([2]; 200 µM) | AC50 for larval growth inhibition [3] |
| --- | --- | --- | --- | --- | --- | --- | --- | --- | --- |
| CC(C)COC(=O)c1ccccc1C(=O)OCC(C)C [Diisobutyl phthalate] | 100 µM | 5.93 | 5.94 | 5.9 | 5.95 | 6.12 | 5.58 | 5.43 | 96.3 µM |
| O=[N+]([O-])c1ccc(O)c([N+](=O)[O-])c1 [2,4-Dinitrophenol] | 200 µM | 5.82 | 5.79 | 5.78 | 5.83 | 5.83 | 5.75 | 5.52 | > 200 µM |
| O=C(O)C(F)(F)C(F)(F)C(F)(F)C(F)(F)C(F)(F)C(F)(F)C(F)(F)C(F)(F)F [Perfluorononanoic acid] | 10 µM | 5.85 | 5.84 | 5.81 | 5.61 | 4.27 | 3.92 | 3.1 | 39 µM |
| Cc1ccc(/N=C/N(C)/C=N/c2ccc(C)cc2C)c(C)c1 [Amitraz] | 200 µM | 6.02 | 5.93 | 6.14 | 5.97 | 5.95 | 6.57 | 4.72 | 200 µM |
| O=S1OCC2C(CO1)C1(Cl)C(Cl)=C(Cl)C2(Cl)C1(Cl)Cl (configuration not stated) [Endosulfan] | 5 µM | 5.74 | 5.72 | 5.08 | 3.84 | 3.51 | 3.24 | 3.47 | 6.12 µM |
| Clc1ccc(C(c2ccc(Cl)cc2)C(Cl)Cl)cc1 [p,p'-DDD] | ≤ 0.5 µM | 5.59 | 5.57 | 3.62 | 3.7 | 3.68 | 3.57 | 3.14 | 1.88 µM |
| CCC(=O)C(CC(C)N(C)C)(c1ccccc1)c1ccccc1 (configuration not stated) [Methadone Hydrochloride] | 200 µM | 5.87 | 5.81 | 5.87 | 5.88 | 5.7 | 5.81 | 5.54 | > 200 µM |
| COc1cc(Cl)c(OC)cc1Cl [Chloroneb] | 200 µM | 5.75 | 5.71 | 5.58 | 5.7 | 5.96 | 5.97 | 5.47 | > 200 µM |
| CN(C)c1ccc(C(=C2C=CC(=[N+](C)C)C=C2)c2ccc(N(C)C)cc2)cc1 [Hexamethyl-p-rosaniline chloride] | ≤ 0.5 µM | 4.79 | 4.53 | 4.01 | 3.85 | 3.66 | 4.08 | 4.02 | < 0.5 µM |
| CC(C)(C)c1cc(O)ccc1O [tert-Butylhydroquinone] | 50 µM | 5.85 | 5.85 | 5.96 | 5.81 | 5.62 | 5.41 | 5.03 | > 200 µM |
| CCOC(=O)C(C)OC(=O)c1cc(Oc2ccc(C(F)(F)F)cc2Cl)ccc1[N+](=O)[O-] (configuration not stated) [Lactofen] | 50 µM | 5.89 | 5.94 | 5.8 | 5.86 | 5.24 | 5.25 | 4.89 | 138 µM |
| CC[C@H](C)C1O[C@]2(C=C[C@@H]1C)C[C@@H]1C[C@@H](C/C=C(\C)[C@@H](O[C@H]3C[C@H](OC)[C@@H](O[C@H]4C[C@H](OC)[C@H](NC)[C@H](C)O4)[C@H](C)O3)[C@@H](C)/C=C/C=C3\CO[C@@H]4[C@H](O)C(C)=C[C@@H](C(=O)O1)[C@]34O)O2 (some centres not stated) [Emamectin benzoate] | ≤ 0.5 µM | 3.52 | 3.7 | 3.74 | 3.6 | 3.65 | 3.54 | 4.24 | < 0.5 µM |
| CNS(=O)(=O)c1cc(C(=O)N2CCC(CCN3C4CCC3CC(n3c(C)nc5ccccc53)C4)(c3cccc(F)c3)CC2)c(Cl)cc1F (configuration not stated) | 50 µM | 5.68 | 5.79 | 5.77 | 5.78 | 5.62 | 5.38 | 5.41 | > 200 µM |
| CCC(C)(C)C(=O)OC1=C(c2ccc(Cl)cc2Cl)C(=O)OC12CCCCC2 [Spirodiclofen] | 50 µM | 5.74 | 5.86 | 5.7 | 5.73 | 4.53 | 4.72 | 4.25 | 24 µM |
| CCCCCCC(=O)O [Heptanoic acid] | 200 µM | 5.88 | 5.97 | 5.87 | 6.04 | 5.85 | 5.87 | 5.43 | > 200 µM |
| c1ccc(Nc2ccccc2)cc1 [Diphenylamine] | 10 µM | 5.86 | 5.75 | 5.83 | 4.11 | 3.96 | 3.87 | 4.5 | 7.4 µM |
| O=Cc1ccccc1C=O [1,2-Benzenedicarboxaldehyde] | 50 µM | 5.83 | 5.92 | 5.82 | 5.93 | 5.24 | 4.04 | 3.73 | 62 µM |
| CCCN(CC)CC1COC2(CCC(C(C)(C)C)CC2)O1 (configuration not stated) [Spiroxamine] | 200 µM | 5.61 | 5.84 | 5.9 | 6.1 | 5.84 | 6.17 | 3.97 | 184 µM |
| CCN(Cc1cccnc1)C(=O)c1cccc(Cl)c1[C@]1(C)C(=O)N(Cc2ccc(OC)cc2OC)c2ccc(Cl)cc21 | 10 µM | 5.85 | 5.78 | 5.8 | 5.4 | 5.54 | 5.37 | 5.39 | 3.78 µM |
| NC(=O)N(O)[C@@H]1C=C[C@H](Oc2cccc(Oc3ccc(F)cc3)c2)C1 | 100 µM | 5.9 | 6.14 | 6.17 | 6.17 | 5.89 | 5.05 | 4.86 | 72.9 µM |
| N#Cc1nn(-c2c(Cl)cc(C(F)(F)F)cc2Cl)c(N)c1[S+]([O-])C(F)(F)F (configuration not stated) [Fipronil] | 10 µM | 5.96 | 5.84 | 5.92 | 5.65 | 5.59 | 5.52 | 5.17 | > 200 µM |
